Consider 18 compounds from PubChem BioAssay (NCI).

SMILES strings stand for the structures. “And” between values parts separate entries of the source, which are not always exact repeats. Identical values can stand only once.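 In this assay, cells in 96-well plates receive the compound at five concentrations for 48 hours. Endpoints are linearly interpolated between the surrounding concentrations. At the GI50, growth is halved. The concentration for full growth arrest is given as TGI.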 Bounds are passed on as bounds.

Test systems include SF-295 CNS; NCI/ADR-RES ovarian; ACHN renal; HCC-2998 colon; EKVX NSCLC; SNB-75 CNS; NCI-H226 lung; UO-31 renal.
What all share (assay): growth of human tumour cells (NCI), 48 h

Consider `ClC(Cl)c1nc(-c2cccnc2)n2nc(-c3ccccc3)cc2n1`, for which the GI50 in the assay with SF-295 CNS was 2.27 µM; in the assay on NCI/ADR-RES ovarian it was 1.14 µM; with ACHN renal it was 1.37 µM; with HCC-2998 colon, 0.639 µM; with EKVX NSCLC, 2.32 µM. The TGI in the assay with SF-295 CNS turned out to be 6.52 µM; in the assay with NCI/ADR-RES ovarian, 4.18 µM; in the assay with ACHN renal, 4.94 µM; with HCC-2998 colon, 2.15 µM; with EKVX NSCLC, 6.21 µM.
With `Cn1c(=O)c(Oc2ccccc2F)cc2cnc(NC3CCOCC3)nc21`, the GI50 was more than 19.8 µM in the assay on SNB-75 CNS; more than 25 µM in the assay on SF-295 CNS; more than 25 µM with NCI-H226 lung; more than 25 µM in the assay with NCI/ADR-RES ovarian; more than 25 µM with ACHN renal; more than 25 µM with HCC-2998 colon. Moreover, the GI50 in the assay on UO-31 renal was more than 14.4 µM. Moreover, the TGI in the assay with SNB-75 CNS, with SF-295 CNS, with NCI-H226 lung, with NCI/ADR-RES ovarian, in the assay on ACHN renal and in the assay with HCC-2998 colon was more than 25 µM each time. The same compound had a TGI with UO-31 renal of more than 25 µM.
In the case of `COc1cc2c3c(c1)c1cc(OC)c(OC)cc1c[n+]3CC2`, the TGI was 50 µM and > 100 µM in the assay with SF-295 CNS; 50 µM and 77.3 µM in the assay with NCI-H226 lung; more than 100 µM in the assay with NCI/ADR-RES ovarian; more than 100 µM with ACHN renal; 50 µM and > 100 µM with EKVX NSCLC; more than 100 µM in the assay with UO-31 renal. The GI50 in the assay with NCI-H226 lung is 4.13 µM; with NCI/ADR-RES ovarian, more than 100 µM; in the assay with ACHN renal, more than 100 µM; in the assay on EKVX NSCLC, more than 100 µM.
Regarding `COC1CC2C=C(C)/C=C/C=C/C(=O)NC(c3ccccc3)C/C=C/CCC(O)CC(=O)C2=C1O` (stereo not given), the GI50 is 0.208 µM with SNB-75 CNS; 0.246 µM in the assay on SF-295 CNS; 0.43 µM with NCI-H226 lung; 0.309 µM in the assay on NCI/ADR-RES ovarian; 0.311 µM in the assay with ACHN renal; 0.558 µM in the assay on HCC-2998 colon. Further, in the assay on UO-31 renal, the GI50 is 0.281 µM. In addition, the TGI came out at 0.828 µM in the assay with SNB-75 CNS; 0.788 µM in the assay with SF-295 CNS; 2.17 µM in the assay with NCI-H226 lung; 1.19 µM with NCI/ADR-RES ovarian; 1.14 µM with ACHN renal; 1.94 µM in the assay on HCC-2998 colon. In the assay with UO-31 renal, this compound registered a TGI of 1.14 µM.
For the compound `CC(C)c1ccc(/C(C(=O)O)=C(\O)C(=O)O)cc1`, the TGI in the assay with SNB-75 CNS, with SF-295 CNS, with NCI-H226 lung, in the assay on NCI/ADR-RES ovarian, in the assay on ACHN renal and in the assay with EKVX NSCLC was more than 100 µM in each case. The compound also displayed a TGI in the assay on UO-31 renal of more than 100 µM.
For the compound `CC(C)(C)NCc1cc(C(C)(C)C)cc(-c2ccc(Cl)cc2)c1O`, the TGI in the assay on SNB-75 CNS came to 22.7 µM; in the assay with SF-295 CNS, 36.6 µM; in the assay with NCI/ADR-RES ovarian, 32.4 µM; in the assay on ACHN renal it was 26.7 µM; with HCC-2998 colon, 29.6 µM; with EKVX NSCLC it was 32.4 µM. Besides, the TGI with UO-31 renal turned out to be 15.1 µM.
As to `CCCCNN`, the TGI in the assay with SNB-75 CNS, with SF-295 CNS, in the assay with NCI-H226 lung, in the assay on NCI/ADR-RES ovarian, in the assay with ACHN renal and with EKVX NSCLC was more than 100 µM throughout. In the assay with UO-31 renal, this compound displayed a TGI of more than 100 µM.
`COc1cc(/C=C2\CC3C4CC=C5C[C@@H](OC(C)=O)CC[C@]5(C)C4CC[C@]3(C)C2=O)ccc1OCCCn1ccnc1` (stereo not given in full): the GI50 was 9.22 µM in the assay on SF-295 CNS; 8.26 µM with NCI-H226 lung; 8.94 µM in the assay on NCI/ADR-RES ovarian; 9.81 µM in the assay with ACHN renal; 14.6 µM in the assay with HCC-2998 colon; 0.0741 µM with EKVX NSCLC. The GI50 in the assay on UO-31 renal is 9.14 µM. In addition, the TGI in the assay with SF-295 CNS is 22.3 µM; in the assay with NCI-H226 lung, 17.8 µM; in the assay with NCI/ADR-RES ovarian, 19.5 µM; in the assay with ACHN renal, 21 µM; in the assay with HCC-2998 colon, 23 µM; in the assay with EKVX NSCLC, 5.18 µM. The TGI with UO-31 renal was 19.9 µM.
With `N#Cc1cnc2cc(OC[C@@H](O)CO)c(NC(=O)CC3CSSC3)cc2c1Nc1ccc(OCc2cccc(F)c2)c(Cl)c1`, the GI50 is 0.738 µM with SNB-75 CNS; 0.88 µM with SF-295 CNS; 2.19 µM with NCI/ADR-RES ovarian; 1.1 µM in the assay with ACHN renal; 0.164 µM with HCC-2998 colon; 0.265 µM in the assay with EKVX NSCLC. The GI50 with UO-31 renal is 1.63 µM. Besides, the TGI was determined as 1.58 µM with SNB-75 CNS; 1.78 µM in the assay with SF-295 CNS; 3.16 µM in the assay with NCI/ADR-RES ovarian; 2.87 µM in the assay with ACHN renal; 0.506 µM with HCC-2998 colon; 1.18 µM in the assay on EKVX NSCLC. For the same compound, in the assay with UO-31 renal, the TGI is 5.5 µM.
Regarding `CN1CCCN(C)C1c1cc([N+](=O)[O-])ccc1O`, the TGI is more than 100 µM in the assay with SNB-75 CNS; more than 100 µM in the assay with SF-295 CNS; 82.5 µM with NCI-H226 lung; more than 100 µM in the assay with NCI/ADR-RES ovarian; 64.3 µM in the assay on ACHN renal; more than 100 µM in the assay with EKVX NSCLC. The TGI in the assay with UO-31 renal was 64.8 µM.
As for `Nc1ccc(S(=O)(=O)C23CC4CC(CC(C4)C2)C3)cc1`, the TGI in the assay on SF-295 CNS, in the assay on NCI-H226 lung, with NCI/ADR-RES ovarian, in the assay on ACHN renal, in the assay on HCC-2998 colon and in the assay on EKVX NSCLC was more than 100 µM throughout. In the assay with UO-31 renal, this compound displayed a TGI of more than 100 µM.
Regarding `CC1=C[C@H]2c3c(c(O)c(O)c4oc5ccccc5c(=O)c34)[C@H](c3cc(O)c(O)c4oc5ccccc5c(=O)c34)[C@H]2C(C)(C)C1`, the GI50 was 0.637 µM in the assay on SNB-75 CNS; 0.443 µM in the assay on SF-295 CNS; 3.07 µM in the assay with NCI/ADR-RES ovarian; 0.863 µM with ACHN renal; 1.87 µM in the assay on HCC-2998 colon; 1.44 µM with EKVX NSCLC. Moreover, in the assay with UO-31 renal, the GI50 was 0.73 µM. Further, the TGI in the assay on SNB-75 CNS came out at 6.59 µM; in the assay on SF-295 CNS, 2.28 µM; with NCI/ADR-RES ovarian it was 16.3 µM; with ACHN renal it was 9.22 µM; in the assay with HCC-2998 colon, 6.03 µM; in the assay with EKVX NSCLC, 12.8 µM. The compound also returned a TGI in the assay with UO-31 renal of 2.18 µM.
For `CCOC(=O)C(CO)c1nc2c([nH]c1=O)c(=O)n(C)c(=O)n2C` (stereo not given), the TGI with SF-295 CNS, in the assay with NCI-H226 lung, with NCI/ADR-RES ovarian, in the assay with ACHN renal, in the assay on HCC-2998 colon and in the assay on EKVX NSCLC was more than 100 µM each time. The same compound returned a TGI in the assay with UO-31 renal of more than 100 µM.
On to `NC(=O)c1cc(Br)cc(C2CCCCC2)c1O`, for which the GI50 with SNB-75 CNS was 11.9 µM; in the assay with SF-295 CNS, 11.3 µM; in the assay with NCI-H226 lung it was 13.6 µM; in the assay on NCI/ADR-RES ovarian it was 11 µM; with ACHN renal it was 12.9 µM; in the assay with EKVX NSCLC, 15.1 µM. For the same compound, in the assay on UO-31 renal, the GI50 is 2.51 µM. For the same compound, the TGI in the assay with SNB-75 CNS was 25.9 µM; in the assay with SF-295 CNS, 24.5 µM; in the assay with NCI-H226 lung it was 31 µM; in the assay with NCI/ADR-RES ovarian it was 23.9 µM; in the assay on ACHN renal, 25.5 µM; with EKVX NSCLC, 30.5 µM. The TGI with UO-31 renal worked out at 18.3 µM.
As to `COc1cc2c3c(n(CCCNCCN)c(=O)c2cc1OC)-c1cc2c(cc1C3=O)OCO2`, the GI50 in the assay on SNB-75 CNS is 6.34 µM; in the assay on SF-295 CNS, 1.24 µM; with NCI-H226 lung, 1.1 µM; in the assay with NCI/ADR-RES ovarian, 18.9 µM; with ACHN renal, 0.304 µM; with EKVX NSCLC it was 4.58 µM. The GI50 with UO-31 renal is 5.26 µM. In addition, the TGI in the assay with SNB-75 CNS is 21.5 µM; with SF-295 CNS it was 20.3 µM; in the assay with NCI-H226 lung, 2.55 µM; with NCI/ADR-RES ovarian, more than 62.4 µM; in the assay with ACHN renal, 1.01 µM; in the assay on EKVX NSCLC, 17.2 µM. In the assay with UO-31 renal, this compound returned a TGI of more than 32.9 µM.
For the compound `Cc1sc(C)c(Cc2c(C)sc(C)c2CCl)c1CCl`, the GI50 in the assay with SNB-75 CNS was 51.5 µM; with SF-295 CNS it was more than 100 µM; in the assay with NCI-H226 lung, more than 100 µM; with NCI/ADR-RES ovarian, more than 100 µM; with ACHN renal, more than 100 µM; in the assay with EKVX NSCLC, more than 100 µM. Also, the GI50 in the assay with UO-31 renal was more than 100 µM. In addition, the TGI in the assay with SNB-75 CNS, with SF-295 CNS, in the assay on NCI-H226 lung, with NCI/ADR-RES ovarian, in the assay on ACHN renal and in the assay on EKVX NSCLC was more than 100 µM each time. Besides, the TGI in the assay with UO-31 renal is more than 100 µM.
Turning to `CC(=O)O[C@H]1CC[C@@]2(C)C(=CC[C@H]3[C@@H]4C/C(=C\c5cccc(OCCN6CCOCC6)c5)[C@H](OC(C)=O)[C@@]4(C)CC[C@@H]32)C1`, the GI50 in the assay on SNB-75 CNS is 3.85 µM; in the assay on SF-295 CNS, 2.48 µM; with NCI-H226 lung, 17.9 µM; in the assay with ACHN renal, 13.8 µM; in the assay on HCC-2998 colon it was 5.32 µM; in the assay with EKVX NSCLC, 11 µM. In addition, the GI50 in the assay with UO-31 renal was 6.43 µM. Besides, the TGI in the assay on SNB-75 CNS stood at 22.8 µM; with SF-295 CNS it was 10.5 µM; with NCI-H226 lung it was 85.9 µM; in the assay on ACHN renal it was 42.9 µM; with HCC-2998 colon, 17.6 µM; with EKVX NSCLC, 36.7 µM. Moreover, the TGI with UO-31 renal amounted to 19.3 µM.
On to `O=S(=O)(NCC1CCC(CNc2ccc(Cl)cc2)CC1)c1ccc(-c2ccccc2)cc1` (stereo not given), for which the GI50 with SF-295 CNS was more than 50 µM; with NCI-H226 lung, 21.2 µM; in the assay with NCI/ADR-RES ovarian, more than 50 µM; with ACHN renal, 18.3 µM; in the assay on EKVX NSCLC, 25.7 µM; in the assay with UO-31 renal, more than 50 µM. Further, the TGI in the assay with SF-295 CNS, in the assay on NCI-H226 lung, in the assay with NCI/ADR-RES ovarian, with ACHN renal, in the assay on EKVX NSCLC and in the assay with UO-31 renal was more than 50 µM in each case.
